From patent US20240307434A1, “USE OF LUTETIUM SALT COMPOUNDS FOR ANTIVIRAL EFFECT” (priority 2022, published 2024)

System: Adenovirus, Poliovirus, Herpes Simplex Type 1 and Herpes Simplex Type 2, Coronavirus and Norovirus strains

lutetium Borate [LuBO3]
antiviral efficacy: exhibit antiviral efficacy
